Test results: PMC9523454 (Pharmacology Research & Perspectives, 2022)
“And” between values parts separate entries of the source, which are not always exact repeats. Equal values may be shown once. No end group written: not given here.

Legend:
GLP‐1R/GIPR heteromer = assay type: cell-based, human; conditions: 1 μM ligand; HEK‐293, fixed ratio of GLP‐1R‐Nluc and GIPR‐SYFP2; mean ± SEM, at least three independent experiments
GIPR = conditions: cited from earlier work
GLP‐1R‐Nluc (human) = GLP‐1R‐Nluc (human) (UniProt P43220); assay: FRET or BRET
Chain of UniProt P43220 (P43220 24-463): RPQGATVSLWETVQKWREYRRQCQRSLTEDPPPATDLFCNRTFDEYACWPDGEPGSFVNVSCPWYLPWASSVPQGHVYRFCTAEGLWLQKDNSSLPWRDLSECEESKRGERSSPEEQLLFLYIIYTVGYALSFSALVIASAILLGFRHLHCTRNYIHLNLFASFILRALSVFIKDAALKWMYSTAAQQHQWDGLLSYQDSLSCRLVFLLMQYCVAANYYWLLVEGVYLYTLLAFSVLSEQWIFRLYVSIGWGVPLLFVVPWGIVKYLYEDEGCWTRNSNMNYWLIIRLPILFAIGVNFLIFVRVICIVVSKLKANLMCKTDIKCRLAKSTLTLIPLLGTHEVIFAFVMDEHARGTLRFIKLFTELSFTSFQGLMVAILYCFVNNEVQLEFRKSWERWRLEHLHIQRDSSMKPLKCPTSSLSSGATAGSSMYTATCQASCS

GIPR‐Nluc (human) = GIPR‐Nluc (human) (UniProt P48546); assay: FRET or BRET
Chain of UniProt P48546 (P48546 22-466): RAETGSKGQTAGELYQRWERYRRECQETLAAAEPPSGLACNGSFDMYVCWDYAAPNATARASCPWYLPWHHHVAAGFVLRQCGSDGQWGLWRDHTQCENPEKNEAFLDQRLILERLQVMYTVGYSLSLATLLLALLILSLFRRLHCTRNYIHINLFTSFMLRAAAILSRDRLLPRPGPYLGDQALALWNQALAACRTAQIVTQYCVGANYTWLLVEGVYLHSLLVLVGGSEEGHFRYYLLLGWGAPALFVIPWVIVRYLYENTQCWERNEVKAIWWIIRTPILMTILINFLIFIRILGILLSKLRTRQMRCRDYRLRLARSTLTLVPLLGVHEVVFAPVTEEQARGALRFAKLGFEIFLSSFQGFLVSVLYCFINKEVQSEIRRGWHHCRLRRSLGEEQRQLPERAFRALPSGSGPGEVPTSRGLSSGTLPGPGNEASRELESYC

| Substance | Change in BRET ratio vs non‐stimulated cells (GLP‐1R/GIPR heteromer) | pEC50 of the agonist GLP-1 for recruitment (GLP‐1R‐Nluc (human)) | also measured |
| --- | --- | --- | --- |
| (Pro3)GIP: previously reported to be a GIPR antagonist but subsequently shown to be a low potency GIPR agonist; custom synthesized (YAPGTFISDYSIAMDKIHQQDFVNWLLAQKGKKNDWKHNITQ; Gastric inhibitory polypeptide; UniProt P09681 52-93, looked up, variant E3P) | no effect on BRET ratio |  | Activity at GIPR (GIPR): low potency GIPR agonist |
| GLP‐1 (9‐36): GLP‐1 metabolite, metabolic breakdown product of GLP‐1 (EGTFTSDVSSYLEGQAAKEFIAWLVKGR-NH2; UniProt P01275 100-127, looked up, fragment) | significantly increased the BRET ratio (p < .001) |  |  |
| NES‐Venus‐mGαq |  | 7.8 -log EC50/M and 7.7 -log EC50/M and 7.9 -log EC50/M | pEC50 of the agonist GIP for recruitment (GIPR‐Nluc (human)): 8 -log EC50/M and 7.6 -log EC50/M and 7.8 -log EC50/M |
| NES‐Venus‐mGαs |  | 7.8 -log EC50/M and 7.5 -log EC50/M and 7.7 -log EC50/M |  |
| Oxyntomodulin: posttranslational product of proglucagon and an endogenous dual GLP‐1R/glucagon receptor agonist (HSQGTFTSDYSKYLDSRRAQDFVQWLMNTKRNRNNIA; Oxyntomodulin; UniProt P01275 53-89, looked up) | no effect on BRET ratio |  |  |
| exendin‐4 (9–39) | no significant effect on BRET ratio |  |  |
